From article PMC7156724, “Potent BRD4 inhibitor suppresses cancer cell-macrophage interaction” (Nature Communications, 2020)
“And” between values parts separate entries of the source, which are not always exact repeats. Identical values can stand only once.

Target: T1, BRD4 (BD1+BD2) (Homo sapiens, UniProt O60885)
T1 construct: purchased BPS 32612
Assay: BRD4 (BD1+BD2) TR-FRET binding assay
Conditions: for Biochemical activity against BRD4 (BD1 + BD2): Fig.1b, replicates; for IC50: average IC50, nM, read-out: IC50, biochemical activity against BRD4 (BD1 + BD2)
Source text: 2. BRD4 binding assay. The inhibitory effects of NHWD-530, NHWD-540, NHWD- […]
(BPS, Cat # 32612) per manufacturer’s instructions. […]

Row | Biochemical activity against BRD4 (BD1 + BD2) (concentration(nM) 0.0339849) | Biochemical activity against BRD4 (BD1 + BD2) (concentration(nM) 0.137272) | Biochemical activity against BRD4 (BD1 + BD2) (concentration(nM) 0.614394) | Biochemical activity against BRD4 (BD1 + BD2) (concentration(nM) 1.09152) | Biochemical activity against BRD4 (BD1 + BD2) (concentration(nM) 1.56864) | Biochemical activity against BRD4 (BD1 + BD2) (concentration(nM) 2.04576) | Biochemical activity against BRD4 (BD1 + BD2) (concentration(nM) 2.52288) | Biochemical activity against BRD4 (BD1 + BD2) (concentration(nM) 3) | IC50 | Compound
1 | 0.9223 and 6.575 | 8.361 and 5.3853 | 7.766 and 14.6266 | 25.6174 and 20.5594 | 58.197 | 88.9914 and 87.355 | 96.1321 and 98.9586 | 102.231 and 101.636 | 28.5 nM | Cc1nnn(C)c1-c1cnc2c3cc4c(cc3n([C@H](c3ccccc3)C3CCOCC3)c2c1)C(=O)N(C)C4 [NHWD-530]
2 | 5.534 and 1.544 | 6.278 and 5.237 | 11.7822 and 11.931 | 36.626 and 29.039 | 74.1149 and 79.0241 | 94.7932 and 97.1735 | 100.446 and 100.744 | 101.488 and 101.636 | 18.1 nM | Cc1nnn(C)c1-c1cnc2c3cc4c(cc3n([C@H](c3ccccc3)C3CCOCC3)c2c1)CN(C)C4=O [NHWD-540]
3 | 10.1562 and 13.125 | 5 and 10.625 | 14.5312 and 15.4688 | 33.5938 and 32.5 | 66.25 and 68.125 | 95.625 and 95 | 101.719 | 102.344 and 102.5 | 19.5 nM | Cc1nnn(C)c1-c1cnc2c3c4c(ccc3n([C@H](c3ccccc3)C3CCOCC3)c2c1)C(=O)N(C)C4 [NHWD-560]
